{
  "source": "patent US12521329B2",
  "about": "“Antimicrobial mixture containing 4-(3-ethoxy-4-hydroxyphenyl) butan-2-one, and cosmetic composition containing same” (L'OREAL, priority 2017, dated 2026)",
  "experiment_in_all_cases": "MIC / synergy (FIC index) microplate growth test, optical density 620 nm",
  "type_in_all_cases": "cell-based",
  "key": {"[1]": {"system": "Staphylococcus aureus ATCC 6538", "details": "Example 1", "protocol": "The microbial strain Staphylococcus aureus ATCC 6538 and a double-concentration nutrient broth liquid culture medium were used.\n(§1) A 96-well microplate at an incubation temperature of 32.5° C. is used.\n(§2) The incubation time of the microplate for the abovementioned two strains is: • from 18 to 24 h aerobically for Candida albicans and Staphylococcus aureus. • from 24 hours to 48 hours aerobically for Aspergillus niger Tests\n(§3) A 10% (weight/volume) stock solution was prepared by mixing 1 g of compound in 9 ml of aqueous 1‰ agar solution. Successive dilutions were made with the 1‰ agar solution.\n(§4) 50 μl of each of the daughter solutions obtained containing compound A or B are added to the microplate wells. 100 μl of Sabouraud liquid nutrient broth inoculated at double concentration with the Candida albicans strain and 50 μl of aqueous 1‰ agar solution are also added thereto.\nas §4, with “and 50 μl of each of the daughter solutions obtained containing compound” for “or”, “strain” for “strain and 50 μl of aqueous 1‰ agar solution”\n(§5) A positive microbial growth control was also prepared. The positive microbial growth control corresponds to the mixture of 100 μl of aqueous 1‰ agar solution with 100 μl of Sabouraud liquid nutrient broth inoculated at double concentration with the Candida albicans strain in the absence of compounds A and B.\n(§6) An absorbance control was performed in parallel on compounds A and B alone. This control corresponds to 100 μl of double concentration sterile Sabouraud liquid nutrient broth+100 μl of double concentration compound A or B.\n(§7) In the three cases (absorbance control, growth control and test), the final volume present in each of the microplate wells is 200 μl.\n(§8) In the two cases (test and control), the inoculum represents the concentration of the Candida albicans strain present in the final volume of the wells (200 μl) and is between 2 and 6×10^5 cfu/ml of Candida albicans.\n(§9) The minimum inhibitory concentration (MIC) of each compound A and B alone and in combination was determined in a known manner by means of optical density measurements at a wavelength of 620 nm.\nThe test as described above (tests, absorbance control and growth control) was performed again to test the combination A+B on the Staphylococcus aureus strain and on the Aspergillus niger strain as appropriate."}, "[2]": {"system": "Aspergillus niger ATCC 6275", "details": "Example 5", "source_text": "FIC Index=(MIC of A with B/MIC of A)+(MIC of B with A/MIC of B) with: • MIC of A with B: minimum concentration of product A in the combination A+B which makes it possible to obtain an inhibitory effect; • MIC of B with A: minimum concentration of product B in the combination A+B which makes it possible to obtain an inhibitory effect; • MIC of A: minimum inhibitory concentration of product A alone; • MIC of B: minimum inhibitory concentration of product B alone. […] A 96-well microplate at an incubation temperature of 32.5° C. is used. The incubation time of the microplate for the abovementioned two strains is: • from 18 to 24 h aerobically for Candida albicans and Staphylococcus aureus. • from 24 hours to 48 hours aerobically for Aspergillus niger Tests […] Successive dilutions were made with the 1‰ agar solution. 50 μl of each of the daughter solutions obtained containing compound A or B are added to the microplate wells. 100 μl of Sabouraud liquid nutrient broth inoculated at double concentration with the Candida albicans strain and 50 μl of aqueous 1‰ agar solution are also added thereto. 50 μl of each of the daughter solutions obtained containing compound A and 50 μl of each of the daughter solutions obtained containing compound B are added to the microplate wells. 100 μl of Sabouraud liquid nutrient broth inoculated at double concentration with the Candida albicans strain are also added thereto. A positive microbial growth control was also prepared. […] An absorbance control was performed in parallel on compounds A and B alone. This control corresponds to 100 μl of double concentration sterile Sabouraud liquid nutrient broth+100 μl of double concentration compound A or B. […] In the two cases (test and control), the inoculum represents the concentration of the Candida albicans strain present in the final volume of the wells (200 μl) and is between 2 and 6×10^5 cfu/ml of Candida albicans. […] The test as described above (tests, absorbance control and growth control) was performed again to test the combination A+B on the Staphylococcus aureus strain and on the Aspergillus niger strain as appropriate."}, "[3]": {"system": "Candida albicans ATCC 10231", "protocol": "The microbial strain Candida albicans ATCC 10231 and a double-concentration Sabouraud broth liquid culture medium were used.\nas §1, §2, §3, §4\nas §4, with “and 50 μl of each of the daughter solutions obtained containing compound” for “or”, “strain” for “strain and 50 μl of aqueous 1‰ agar solution”\nas §5, §6, §7, §8, §9"}},
  "data": [
    {"smiles": "CCOc1cc(CCC(C)=O)ccc1O", "note": "[A, 4-(3-ethoxy-4-hydroxyphenyl)butan-2-one]", "values": [
      {"measurement": "microbial growth percentage", "setting": "[1]; 0.0625 weight % A alone", "result": 87, "unit": "%"},
      {"measurement": "microbial growth percentage", "setting": "[1]; 0.125 weight % A alone", "result": 77, "unit": "%"},
      {"measurement": "microbial growth percentage", "setting": "[1]; 0.25 weight % A alone", "result": 78, "unit": "%"},
      {"measurement": "microbial growth percentage", "setting": "[1]; 0.5 weight % A alone", "result": 4, "unit": "%"},
      {"measurement": "% MIC of A alone", "setting": "[1]; growth <= 20%, or even < 25%", "result": 0.5, "unit": "%"},
      {"measurement": "% MIC of A alone", "setting": "[2]", "result": 0.25, "unit": "%"},
      {"measurement": "microbial growth percentage", "setting": "[2]; 0.0625 weight % A alone", "result": 85, "unit": "%"},
      {"measurement": "microbial growth percentage", "setting": "[2]; 0.125 weight % A alone", "result": 43, "unit": "%"},
      {"measurement": "microbial growth percentage", "setting": "[2]; 0.25 weight % A alone", "result": 4, "unit": "%"},
      {"measurement": "microbial growth percentage", "setting": "[3]; Example 1, 0.025 weight % A alone", "result": 84, "unit": "%"},
      {"measurement": "microbial growth percentage", "setting": "[3]; Example 1, 0.05 weight % A alone", "result": 71, "unit": "%"},
      {"measurement": "microbial growth percentage", "setting": "[3]; Example 1, 0.1 weight % A alone", "result": 48, "unit": "%"},
      {"measurement": "microbial growth percentage", "setting": "[3]; Example 1, 0.2 weight % A alone", "result": 10, "unit": "%"},
      {"measurement": "% MIC of A alone", "setting": "[3]; Example 1, growth <= 20%, or even < 25%", "result": 0.2, "unit": "%"},
      {"measurement": "microbial growth percentage", "setting": "[3]; Example 2, 0.025 weight % A alone", "result": 52, "unit": "%"},
      {"measurement": "microbial growth percentage", "setting": "[3]; Example 2, 0.05 weight % A alone", "result": 31, "unit": "%"},
      {"measurement": "microbial growth percentage", "setting": "[3]; Example 2, 0.1 weight % A alone", "result": 18, "unit": "%"},
      {"measurement": "% MIC A", "setting": "[3]; Example 2, A alone", "result": 0.1, "unit": "%"},
      {"measurement": "% MIC of A alone", "setting": "[3]; Example 3", "result": 0.2, "unit": "%"},
      {"measurement": "microbial growth percentage", "setting": "[3]; Example 3, 0.025 weight % A alone", "result": 71, "unit": "%"},
      {"measurement": "microbial growth percentage", "setting": "[3]; Example 3, 0.05 weight % A alone", "result": 65, "unit": "%"},
      {"measurement": "microbial growth percentage", "setting": "[3]; Example 3, 0.1 weight % A alone", "result": 44, "unit": "%"},
      {"measurement": "microbial growth percentage", "setting": "[3]; Example 3, 0.2 weight % A alone", "result": 4, "unit": "%"},
      {"measurement": "% MIC of A alone", "setting": "[3]; Example 4", "result": 0.2, "unit": "%"},
      {"measurement": "microbial growth percentage", "setting": "[3]; Example 4, 0.025 weight % A alone", "result": 83, "unit": "%"},
      {"measurement": "microbial growth percentage", "setting": "[3]; Example 4, 0.05 weight % A alone", "result": 71, "unit": "%"},
      {"measurement": "microbial growth percentage", "setting": "[3]; Example 4, 0.1 weight % A alone", "result": 46, "unit": "%"},
      {"measurement": "microbial growth percentage", "setting": "[3]; Example 4, 0.2 weight % A alone", "result": 6, "unit": "%"},
      {"measurement": "% MIC of A alone", "setting": "[3]; Example 5", "result": 0.1, "unit": "%"},
      {"measurement": "microbial growth percentage", "setting": "[3]; Example 5, 0.025 weight % A alone", "result": 56, "unit": "%"},
      {"measurement": "microbial growth percentage", "setting": "[3]; Example 5, 0.05 weight % A alone", "result": 39, "unit": "%"},
      {"measurement": "microbial growth percentage", "setting": "[3]; Example 5, 0.1 weight % A alone", "result": 17, "unit": "%"}
    ]},
    {"smiles": "Cc1cc(CC(C)CC(C)(C)C)n(O)c(=O)c1.NCCO", "note": "(centres unmarked) [B2, piroctone olamine, reference compound]", "values": [
      {"measurement": "microbial growth percentage", "setting": "[3]; Example 2, 0.00125 weight % B2 alone", "result": 35, "unit": "%"},
      {"measurement": "microbial growth percentage", "setting": "[3]; Example 2, 0.0025 weight % B2 alone", "result": 0, "unit": "%"}
    ]},
    {"smiles": "O=C1C(N(CO)C(=O)NCO)N(CO)C(=O)N1CO", "note": "(centres unmarked) [B3, 1-[1,3-bis(hydroxymethyl)-2,5-dioxoimidazolidin-4-yl]-1,3-bis(hydroxymethyl)urea]", "values": [
      {"measurement": "% MIC of B3 alone", "setting": "[3]; Example 3", "result": 0.125, "unit": "%"},
      {"measurement": "microbial growth percentage", "setting": "[3]; Example 3, 0.0625 weight % B3 alone", "result": 55, "unit": "%"},
      {"measurement": "microbial growth percentage", "setting": "[3]; Example 3, 0.125 weight % B3 alone", "result": 10, "unit": "%"}
    ]},
    {"smiles": "N=C(N)c1ccc(OCCCCCCOc2ccc(C(=N)N)cc2)cc1", "note": "[B4, hexamidine diisethionate, reference compound]", "values": [
      {"measurement": "% MIC of B4 alone", "setting": "[3]; Example 4", "result": 0.005, "unit": "%"},
      {"measurement": "microbial growth percentage", "setting": "[3]; Example 4, 0.00125 weight % B4 alone", "result": 78, "unit": "%"},
      {"measurement": "microbial growth percentage", "setting": "[3]; Example 4, 0.0025 weight % B4 alone", "result": 59, "unit": "%"},
      {"measurement": "microbial growth percentage", "setting": "[3]; Example 4, 0.005 weight % B4 alone", "result": 3, "unit": "%"}
    ]}
  ]
}
